Several values for one entry are separate records, joined by “and”; a condition that tells them apart may be missing. Identical values can stand only once. Toxic doses and inconclusive results are not listed. Rule as the data show it: active = T/C of 150% or more; inactive = T/C below 125%.
Test system: L1210 leukemia ip in BDF1 mice, survival T/C
Experiment: NCI In Vivo Anticancer Drug Screen. Data for tumor model L1210 Leukemia (intraperitoneal) in B6D2F1 (BDF1) mice
Settings: endpoint: mean survival time, higher = longer survival
Procedure, shortened: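 Each compound was tested against a transplantable tumor grown in mice. The endpoint was survival, with treated animals benchmarked against vehicle controls as a simple ratio.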

[1] = dose: 50.0 mg/kg/injection, schedule: Q01DX009 (ip), vehicle: saline with Tween-80
[2] = dose: 100.0 mg/kg/injection, schedule: Q01DX001 (ip), vehicle: saline with Tween-80
[3] = dose: 100.0 mg/kg/injection, schedule: Q01DX009 (ip), vehicle: saline with Tween-80
[4] = dose: 200.0 mg/kg/injection, schedule: Q01DX001 (ip), vehicle: saline with Tween-80
[5] = dose: 200.0 mg/kg/injection, schedule: Q01DX009 (ip), vehicle: saline with Tween-80
[6] = dose: 400.0 mg/kg/injection, schedule: Q01DX001 (ip), vehicle: saline with Tween-80
[7] = dose: 100.0 mg/kg/injection, schedule: Q01DX001 (ip), vehicle: Klucel (hydroxypropylcellulose) (HPC)
[8] = dose: 200.0 mg/kg/injection, schedule: Q01DX001 (ip), vehicle: Klucel (hydroxypropylcellulose) (HPC)
[9] = dose: 400.0 mg/kg/injection, schedule: Q01DX001 (ip), vehicle: Klucel (hydroxypropylcellulose) (HPC)
[10] = dose: 100.0 mg/kg/injection, schedule: Q04DX003 (ip), vehicle: Klucel (hydroxypropylcellulose) (HPC)
[11] = dose: 200.0 mg/kg/injection, schedule: Q04DX003 (ip), vehicle: Klucel (hydroxypropylcellulose) (HPC)
[12] = dose: 400.0 mg/kg/injection, schedule: Q04DX003 (ip), vehicle: Klucel (hydroxypropylcellulose) (HPC)
[13] = dose: 100.0 mg/kg/injection, schedule: Q01DX009 (ip), vehicle: Klucel (hydroxypropylcellulose) (HPC)
[14] = dose: 200.0 mg/kg/injection, schedule: Q01DX009 (ip), vehicle: Klucel (hydroxypropylcellulose) (HPC)
[15] = dose: 400.0 mg/kg/injection, schedule: Q01DX009 (ip), vehicle: Klucel (hydroxypropylcellulose) (HPC)
[16] = dose: 25.0 mg/kg/injection, schedule: Q01DX009 (ip), vehicle: saline with Tween-80
[17] = dose: 100.0 mg/kg/injection, schedule: Q04DX003 (ip), vehicle: saline with Tween-80
[18] = dose: 400.0 mg/kg/injection, schedule: Q01DX009 (ip), vehicle: saline with Tween-80
[19] = dose: 200.0 mg/kg/injection, schedule: Q04DX003 (ip), vehicle: saline with Tween-80
[20] = dose: 400.0 mg/kg/injection, schedule: Q04DX003 (ip), vehicle: saline with Tween-80

Measured: T/C

CC/C(=N\N=C(N)N)c1ccc(NC(N)=S)cc1
inactive: dose: 5.0 mg/kg/injection, schedule: Q01DX009 (ip), vehicle: saline 100 % of control | dose: 10.0 mg/kg/injection, schedule: Q01DX009 (ip), vehicle: saline 105 % of control | dose: 20.0 mg/kg/injection, schedule: Q01DX009 (ip), vehicle: saline 107 % of control | dose: 25.0 mg/kg/injection, schedule: Q01DX009 (ip), vehicle: saline 107 % of control | dose: 40.0 mg/kg/injection, schedule: Q01DX009 (ip), vehicle: saline 103 % of control | dose: 80.0 mg/kg/injection, schedule: Q01DX009 (ip), vehicle: saline 117 % of control

O=CNC(Cc1ccc(OCc2ccccc2)cc1)C(=O)O (stereo not given)
inactive: [1] 98 % of control | [2] 89 % of control | [3] 96 % of control | [4] 95 % of control | [5] 98 % of control | [6] 88 % of control

CN(C)S(=O)(=O)N(C)C
inactive: [7] 96 % of control | [8] 102 % of control | [9] 102 % of control

O=C(O)CCC(=O)c1ccc2ccccc2c1
inactive: [10] 100 % of control | [11] 91 % of control | [12] 92 % of control

CC(=O)N(C)c1ccc(NC(=O)Nc2ccccc2F)cc1
inactive: [13] 98 % of control | [14] 95 % of control | [15] 95 % of control

N#CSCc1ccc(CSC#N)c(Cl)c1
inactive: dose: 1.56 mg/kg/injection, schedule: Q01DX009 (ip), vehicle: saline sonified 97 % of control | dose: 1.56 mg/kg/injection, schedule: Q04DX003 (ip), vehicle: saline with Tween-80 101 % of control | dose: 3.13 mg/kg/injection, schedule: Q01DX009 (ip), vehicle: saline sonified 109 % of control | dose: 3.13 mg/kg/injection, schedule: Q04DX003 (ip), vehicle: saline with Tween-80 109 % of control | dose: 6.25 mg/kg/injection, schedule: Q01DX009 (ip), vehicle: saline sonified 111 % of control | dose: 6.25 mg/kg/injection, schedule: Q04DX003 (ip), vehicle: saline with Tween-80 109 % of control

CCOC(=O)c1[nH]c(COC(C)=O)c(CCC(=O)O)c1C
inactive: dose: 25.0 mg/kg/injection, schedule: Q04DX003 (ip), vehicle: Klucel (hydroxypropylcellulose) (HPC) 101 % of control | dose: 50.0 mg/kg/injection, schedule: Q04DX003 (ip), vehicle: Klucel (hydroxypropylcellulose) (HPC) 95 % of control | [7] 101 % of control | [10] 98 % of control | [8] 93 % of control | [9] 88 % of control

N#CC1C(=O)c2ccccc2C1=O
inactive: [16] 92 % of control | [1] 91 % of control | [3] 89 % of control | [17] 94 % of control

CC1(C)CS(=O)(=O)CC(C)(C)C(=O)C1=O
inactive: [7] 108 % of control

C[N+](C)(C)CCOS(=O)(=O)[O-]
inactive: dose: 50.0 mg/kg/injection, schedule: Q04DX003 (ip), vehicle: saline 99 % of control | dose: 100.0 mg/kg/injection, schedule: Q04DX003 (ip), vehicle: saline 97 % of control and 103 % of control | dose: 200.0 mg/kg/injection, schedule: Q04DX003 (ip), vehicle: saline 95 % of control and 105 % of control | dose: 400.0 mg/kg/injection, schedule: Q04DX003 (ip), vehicle: saline 98 % of control

O=c1[nH]c2cc(Cl)ccc2c2c(Cl)cccc12
inactive: dose: 75.0 mg/kg/injection, schedule: Q01DX001 (ip), vehicle: carboxymethylcellulose (CMC) 91 % of control | dose: 150.0 mg/kg/injection, schedule: Q01DX001 (ip), vehicle: carboxymethylcellulose (CMC) 91 % of control | dose: 300.0 mg/kg/injection, schedule: Q01DX001 (ip), vehicle: carboxymethylcellulose (CMC) 96 % of control

CCCSCC(C)C
inactive: [3] 108 % of control | [5] 98 % of control

CCOC(=O)C(NC=O)(C(=O)OCC)C(C)c1c[nH]c2ccccc12 (stereo not given)
inactive: [2] 93 % of control | [3] 102 % of control | [4] 94 % of control | [5] 98 % of control | [6] 100 % of control | [18] 94 % of control

CC12CCC=CC1=CC(=O)CC2 (stereo not given)
inactive: dose: 75.0 mg/kg/injection, schedule: Q01DX001 (ip), vehicle: other 98 % of control | dose: 150.0 mg/kg/injection, schedule: Q01DX001 (ip), vehicle: other 106 % of control | dose: 300.0 mg/kg/injection, schedule: Q01DX001 (ip), vehicle: other 103 % of control

CCCCC(C=NCC(CCCC)(CCN1CCOCC1)c1cccc2ccccc12)(CCN1CCOCC1)c1cccc2ccccc12 (stereo not given)
inactive: dose: 100.0 mg/kg/injection, schedule: Q01DX009 (ip), vehicle: saline 100 % of control | dose: 200.0 mg/kg/injection, schedule: Q01DX009 (ip), vehicle: saline 96 % of control | dose: 400.0 mg/kg/injection, schedule: Q01DX009 (ip), vehicle: saline 88 % of control

COc1ccc2oc(=O)[nH]c2c1
inactive: [2] 100 % of control | [4] 100 % of control | [6] 100 % of control

Cc1cc(C(C)(C)c2cc(C)c(O)c(C)c2)cc(C)c1O
inactive: [3] 95 % of control | [17] 105 % of control | [5] 93 % of control | [19] 102 % of control | [18] 97 % of control | [20] 96 % of control

O=C(O/C(=N\N1N=NC(c2ccccc2)C1c1ccccc1)c1ccccc1)c1ccccc1 (stereo not given)
inactive: dose: 100.0 mg/kg/injection, schedule: Q01DX001 (ip), vehicle: carboxymethylcellulose (CMC) 87 % of control | dose: 200.0 mg/kg/injection, schedule: Q01DX001 (ip), vehicle: carboxymethylcellulose (CMC) 89 % of control | dose: 400.0 mg/kg/injection, schedule: Q01DX001 (ip), vehicle: carboxymethylcellulose (CMC) 89 % of control

NC(=S)N/N=C/c1cc(Br)c(O)c(Br)c1
inactive: [13] 104 % of control | [14] 91 % of control | [15] 98 % of control

CCc1ccc(NC(=O)c2cc(OC)c(OC)c(OC)c2)cc1
inactive: [13] 100 % of control | [14] 97 % of control | [15] 101 % of control

NC(=O)N(CCCO)/N=C\c1ccc([N+](=O)[O-])o1
inactive: dose: 100.0 mg/kg/injection, schedule: Q04DX002 (ip), vehicle: Klucel (hydroxypropylcellulose) (HPC) 100 % of control | dose: 200.0 mg/kg/injection, schedule: Q04DX002 (ip), vehicle: Klucel (hydroxypropylcellulose) (HPC) 96 % of control

O=C(CC(=O)c1ccco1)c1ccccc1
inactive: dose: 100.0 mg/kg/injection, schedule: Q01DX001 (ip), vehicle: saline 102 % of control | dose: 200.0 mg/kg/injection, schedule: Q01DX001 (ip), vehicle: saline 100 % of control | dose: 400.0 mg/kg/injection, schedule: Q01DX001 (ip), vehicle: saline 96 % of control

Cc1ccc(C(=O)C2CN(C)CCC2(O)c2ccc(C)cc2)cc1 (stereo not given)
inactive: [17] 96 % of control | [19] 103 % of control | [20] 96 % of control

COC(=O)c1cc2c(s1)C(=O)c1ccccc1-2
inactive: [10] 104 % of control | [11] 94 % of control | [12] 105 % of control

CNC(=O)NC1C(O)COC(OC)C1O (stereo not given)
inactive: dose: 6.25 mg/kg/injection, schedule: Q01DX009 (ip), vehicle: saline with Tween-80 101 % of control | dose: 12.5 mg/kg/injection, schedule: Q01DX009 (ip), vehicle: saline with Tween-80 101 % of control | [16] 105 % of control | [1] 100 % of control

O=C1Cc2cccc3cccc1c23
inactive: [17] 102 % of control | [19] 106 % of control | [20] 104 % of control

Reference: PubChem BioAssay AID248 (DTP/NCI, 2004)
